Key:
[1] = tested on: ESECT-7 cells; test: Annexin V staining, ESECT-7; type: cell-based, human; conditions: 10 μM DIM-C-pPhOH-3-Cl-5-OCH3, 25 μM DIM-C-pPhOH, FIG. 3A
Method: Annexin V staining: ESECT-7 and ESECT-40 cells were seeded in Nunc chambered cover glass followed by various drug treatments. The cells were then washed with ice-cold PBS, and 5 μL Alexa Fluor® 488 Annexin V with 100 μg/mL PI (as per the manufacturer's instructions) were added to the cells and incubated for 15 min, and the cells were observed using a Zeiss confocal fluorescence microscope.

[2] = target: T1, NR4A1 (Mus musculus, UniProt P12813); conditions: C2C12 muscle cells; cited from earlier work
T1 construct: endogenous in cells; host or cells: C2C12 muscle cells

[3] = tested on: ESECT-40 cells; test: Cell proliferation assay (MTT), ESECT-40; type: cell-based, human; conditions: 24 hr; 5-10 μM DIM-C-pPhOH-3-Cl-5-OCH3, 15-25 μM DIM-C-pPhOH; FIG. 2C
Method: (§1) Primary human endometriotic stromal cells from endometriosis patients: Ovarian endometrioma were isolated from endometriosis patients in the proliferative phase following the IRB-approved protocol. Isolated ectopic lesions were digested with collagenase type 3 (300 μg/ml) and DNaseI (40 μg/ml) for 90 min at 37° C., and then tissues were filtered through 150, 100, and 40 μm sieves to isolate endometrial stromal cells. The collected endometrial stromal cells were cultured in DMEM/F12 with 10% FBS plus 1× antibiotic/antimycotic solution and then validated by flow cytometry with a CD90 antibody (a mesenchymal marker). Henceforth, we refer to the stromal cells as ectopic endometrium isolated ovarian endometrioma (ESECT). As the control, primary normal endometrial stromal cells isolated from the biopsy of the eutopic endometrium of normal women (NEM) in the proliferative phase. All cells were incubated at 37° C. in CO2 incubator in an atmosphere of humidified 5% CO2 and 95% air.
(§2) Cell proliferation assay: Patient-derived endometriotic cells ESECT-7 and ESECT-40 were seeded into a 96-well plate, and the cells were then treated for 24 hr with either DMSO or different concentrations of DIM-C-pPhOH and DIM-C-pPhOH-3-Cl-5-OCH3. […] Dimethyl sulfoxide (DMSO) was added and incubated at […] for 10 min, and absorbance was measured at 570 nm.

[4] = tested on: mouse ectopic lesions
Description: Endometriosis Mouse Model with Auto-transplantation: One uterine horn was isolated from a female mouse (6 weeks old, C57BL/6J) under anesthesia, and then the uterine horn was longitudinally cut. Using a 2-mm dermal biopsy punch, one endometrial fragment was obtained from the isolated uterus and subsequently sutured to the mesenteric membrane attached to the intestine of the same mouse. The abdominal incision then was closed by suture. Before harvesting ectopic lesions, the mouse estrous cycle was determined using vaginal cytology. At the estrus stage in the 3rd week after endometriosis induction, ectopic lesions were isolated from mice with endometriosis. As the endometriosis control, uteri were isolated from C57BL/6J female mice without endometriosis at the estrus stage at 10 weeks of age.
Endometriosis Treatment with C-DIM: Endometriosis was induced to mice with auto- and hetero-transplantation method as described above. […] In the case of the auto-transplantation model, we isolated mouse ectopic lesions treated with C-DIM versus the vehicle from mice with endometriosis at the estrus stage in the 3rd week after drug treatment and then determined their volume. In the case of the hetero-transplantation model, we determined the luciferase activity of the human ectopic lesions treated with C-DIM versus vehicle in SCID mice with endometriosis during the drug treatment.

[5] = tested on: NEM cells; test: Cell growth, normal endometrial NEM cells; type: cell-based, human; conditions: 24 hr; 15-25 μM DIM-C-pPhOH, 5-10 μM DIM-C-pPhOH-3-Cl-5-OCH3; vs DMSO control; FIG. 4A
Method: as §1, §2

[6] = tested on: ESECT-7 cells; test: α-SMA immunofluorescence, ESECT-7; type: cell-based, human; conditions: vs control, FIG. 5A
Method: Immunofluorescence: ESECT-7 and ESECT-40 cells were seeded in Nunc chambered cover-glass followed by various drug treatments. The cells were fixed with 4% paraformaldehyde in PBS for 20 minutes at 37° C. Cells were then blocked and incubated overnight with primary α-SMA antibody in the buffer (5% bovine serum albumin in PBS) at 4° C., followed by incubation with Alexa Fluor conjugated secondary antibody at a dilution of 1:250 for 2 hours at room temperature. Finally, cells were observed using a Zeiss confocal fluorescence microscope.

[7] = tested on: NEM cells; test: Annexin V staining, NEM cells; type: cell-based, human; conditions: 25 μM DIM-C-pPhOH, 10 μM DIM-C-pPhOH-3-Cl-5-OCH3, vs DMSO control, FIG. 4C
[8] = tested on: IHEECs; test: Expression of fibrosis markers in IHEECs; type: cell-based, human; conditions: 24 hours, vs control, FIG. 6B
[9] = tested on: ESECT-7 cells; test: Cell proliferation assay (MTT), ESECT-7; type: cell-based, human; conditions: 24 hr; 5-10 μM DIM-C-pPhOH-3-Cl-5-OCH3, 15-25 μM DIM-C-pPhOH; FIG. 2C
Method: as §1, §2

[10] = tested on: ESECT-7 cells; test: Western blotting of growth promoting and proapoptotic gene products, ESECT-7; type: cell-based, human
Description: Reagents and Antibodies: Annexin V Dead Cell Apoptosis Kit (V13241) was purchased from Invitrogen. The primary antibodies used were EGFR (4267, 1:1000), Survivin (2808, 1:1000), c-Caspase-3 (9661, 1; 1000), c-PARP (9541, 1:1000) from Cell Signaling Technology (Danvers, MA) and c-Myc (sc-40, 1:500), Bcl-2 (sc-509, 1:500) and Bax (sc-20067, 1:500) from Santacruz Biotechnology (Santacruz, CA), NR4A1 (ab109180, 1:3000) and α-SMA (ab32575, 1:3000) from Abcam (Cambridge, MA), β-Actin (A1978, 1:10000) from Sigma Aldrich Corporation (Milwaukee, WI). COL1A1 (GTX112731, 1:2000), CTGF (GTX124232, 1:2000) and FN (GTX112794, 1:2000) from GeneTex, Inc. (Irvine, CA). Secondary antibodies for rabbit (7074), mouse (7076) and Anti-rabbit Alexa Fluor (4412) purchased from Cell Signaling Technology (Danvers, MA). […]
Western Blotting: ESECT-7 and ESECT-40 cells (2×105) were seeded and allowed to attach for 24 hr, and cells were then treated for 24 hr with either DMSO or different concentrations of DIM-C-pPhOH and DIM-C-pPhOH-3-Cl-5-OCH3. Cells were then lysed and whole-cell lysates were resolved in 10% SDS-PAGE gels and proteins were transferred using PVDF membrane by wet blotting followed by primary and secondary antibody incubation and detected using ECL reagent as described.

[11] = tested on: Ishikawa cells; test: Expression of fibrosis markers in Ishikawa cells; type: cell-based; conditions: 24 hours, FIG. 6D

T1 sequence (P12813 whole entry): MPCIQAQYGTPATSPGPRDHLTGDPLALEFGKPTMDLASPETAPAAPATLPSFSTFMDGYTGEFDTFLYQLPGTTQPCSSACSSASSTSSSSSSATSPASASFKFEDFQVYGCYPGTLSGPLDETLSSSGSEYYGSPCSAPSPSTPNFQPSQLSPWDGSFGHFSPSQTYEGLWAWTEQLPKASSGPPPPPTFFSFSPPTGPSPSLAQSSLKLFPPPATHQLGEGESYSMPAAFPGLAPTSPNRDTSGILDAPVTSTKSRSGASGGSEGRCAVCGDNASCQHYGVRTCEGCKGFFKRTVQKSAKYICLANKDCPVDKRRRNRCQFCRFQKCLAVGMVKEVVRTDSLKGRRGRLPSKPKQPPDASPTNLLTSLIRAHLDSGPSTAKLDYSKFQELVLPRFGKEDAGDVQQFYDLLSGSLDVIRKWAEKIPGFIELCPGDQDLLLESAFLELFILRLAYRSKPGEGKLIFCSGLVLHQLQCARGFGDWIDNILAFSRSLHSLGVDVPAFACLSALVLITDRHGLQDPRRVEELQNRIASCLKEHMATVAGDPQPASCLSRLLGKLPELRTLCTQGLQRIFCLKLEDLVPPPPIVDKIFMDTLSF

In the case of `COc1cc(C(c2c[nH]c3ccccc23)c2c[nH]c3ccccc23)cc(Cl)c1O` [DIM-C-pPhOH-3-Cl-5-OCH3], the “Annexin V staining (apoptosis)” value [1] is given as “significantly induced”, the “NR4A1 agonist activity, induction of genes involved in glucose uptake” value [2] is given as “worked as NR4A1 agonists” and the “growth of ESECT-40 cells” value [3] is given as “effectively inhibited the growth”. For the same compound, the “reduction of the volume of ectopic lesions compared to the vehicle” value ([4]; 25 mg/kg every day, intraperitoneal, three weeks, p=0.015, FIG. 8D) was 2.4 fold, the “bodyweight of mice as compared to the vehicle” value ([4]; mouse, in vivo) was “did not change” and the “growth of normal endometrial NEM cells” value [5] was “did not suppress the growth”. The “expression of SMA levels” value [6] was “decreased expression of SMA levels”, the “Annexin V staining” value [7] was “did not enhance” and the “expression of fibrosis markers (α-SMA, COL1A1, FN, CTGF)” value [8] was “decreased expression of fibrosis markers”. The “growth of ESECT-7 cells” value [9] was “effectively inhibited the growth”, the “expression of EGFR and cMyc” value ([10]; 5-10 μM, 24 hr, FIG. 2D) was “downregulated” and the “markers of apoptosis (downregulation of survivin and Bcl-2, induced Bax, cleaved PARP and caspase-3)” value ([10]; Five μM, 24 hours, FIG. 3C) was “significantly induced several markers of apoptosis”. For the same compound, the “expression of fibrosis markers (α-SMA, COL1A1, FN, CTGF)” value [11] was “decreased expression of fibrosis markers”.

From patent publication US12622892B2, “Methods for treating endometriosis” (THE TEXAS A&M UNIVERSITY SYSTEM, priority 2020, dated 2026)
